Molecular target: T1, new ADP-ribosyl cyclase (ADPRC) of SEQ ID NO 1 (Mus musculus, UniProt P14094)
T1 construct: FLAG (N); made in house; host or cells: HEK293 cells or MES13 cells (transient transfection)
Test: Inhibition of NAD glycohydrolase (NADase) activity of new ADPRC
Format: biochemical
Conditions: as compared to the control group; ε-NAD substrate, 37° C. 1 hour; inhibitor concentration not given; FIG. 5
Description: In order to investigate the ADP-ribosyl cyclase (ADPRC) activity of SEQ ID NO 1, a FLAG-ADPRC plasmid was prepared by ligating a cDNA sequence encoding ADPRC into a FLAG-CMV-2 vector and the overexpression of new ADPRC was induced by treating HEK293 cells or MES13 cells using a transfection reagent. The overexpressed new ADPRC was lysed with a lysis buffer. 45 μL of the lysed sample was treated with 5 μL of 2 mM ε-NAD (nicotinamide 1,N6-ethenoadenine dinucleotide) and incubated at 37° C. for 1 hour. Then, the enzyme-substrate reaction was stopped by treating with 50 μL of 10% trichloroacetic acid. After centrifuging for 10 minutes and adding 80 μL of the supernatant to 720 μL of 0.1 M sodium phosphate buffer, absorbance was measured at 297 nm (excitation) and 410 nm (emission) with a fluorescence spectrometer.
In order to find an inhibitor which inhibits the activation of new ADP-ribosyl cyclase (ADPRC) of SEQ ID NO 1, 5 μL of each of 4,4′-dihydroxyazobenzene (4-DHAB, TCI (Japan)), 2,2′-dihydroxyazobenzene (2-DAB, Sigma-Aldrich (USA)), 2-(3,4-dihydroxyphenyl)-3,5,7-trihydroxychromen-4-one (Quercetin, Sigma-Aldrich (USA)) and San4825 (synthesized by Kannt A et al. [Kannt A, Sicka K, Kroll K, Kadereit D, Gogelein H. Naunyn. Schmiedebergs. Arch. Pharmacol. 385: 717-727, 2012], China) and 2-(1,3-benzoxazol-2-ylamino)-1-methylquinazoline-4(1H)-one (2-BMQ) and 1,4-dicaffeoylquinic acid (1,4-DCQA, Biopurify (China), hereinafter DCQA), which were newly found through screening, was reacted with 40 μL of new ADPRC in iced water for 15 minutes. Then, reaction was conducted at 37° C. for 1 hour after treating with 5 μL of 2 mM ε-NAD (nicotinamide 1,N6-ethenoadenine dinucleotide). Then, the enzyme-substrate reaction was stopped by treating with 50 μL of 10% trichloroacetic acid. After centrifuging for 10 minutes and adding 80 μL of the supernatant to 720 μL of 0.1 M sodium phosphate buffer, absorbance was measured at 297 nm (excitation) and 410 nm (emission) using a fluorescence spectrometer.

Row | NAD glycohydrolase (NADase) activity inhibited [%] | SMILES
1 | 36.49 | Cn1c(Nc2nc3ccccc3o2)nc(=O)c2ccccc21 [2-BMQ, 2-(1,3-benzoxazol-2-ylamino)-1-methylquinazoline-4(1H)-one]
2 | 42.40 | Oc1ccc(N=Nc2ccc(O)cc2)cc1 [4-DHAB, 4,4′-dihydroxyazobenzene]
